# Test results published in patent US20240158446A1, “CYCLIC COMPOUND HAVING SELECTIVE INHIBITORY ACTION ON KRAS OVER HRAS AND NRAS” (CHUGAI SEIYAKU KABUSHIKI KAISHA, priority 2021, published 2024).
# What was measured:
# [1] = target: GDP-bound NRAS wild-type protein (Homo sapiens, UniProt P01111); assay: Binding to NRAS by surface plasmon resonance (SPR), Single Cycle Kinetics; conditions: SPR, GDP-bound NRAS wild-type protein vs GDP-bound KRAS wild-type protein
# [2] = target: GDP-bound HRAS wild-type protein (Homo sapiens, UniProt P01112); assay: Binding to HRAS by surface plasmon resonance (SPR), Single Cycle Kinetics; conditions: SPR, GDP-bound HRAS wild-type protein vs GDP-bound KRAS wild-type protein
# [3] = test system: human lung cancer strain NCI-H441;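 also: cell proliferation inhibition after four days measured by CellTiter-Glo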
# Chain of GDP-bound NRAS wild-type protein (P01111 whole entry): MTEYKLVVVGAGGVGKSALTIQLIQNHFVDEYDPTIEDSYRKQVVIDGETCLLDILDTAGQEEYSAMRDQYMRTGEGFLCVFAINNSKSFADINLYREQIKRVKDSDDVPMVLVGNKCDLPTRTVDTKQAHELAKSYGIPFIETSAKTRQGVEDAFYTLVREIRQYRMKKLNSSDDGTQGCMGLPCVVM
# Chain of GDP-bound HRAS wild-type protein (P01112 whole entry): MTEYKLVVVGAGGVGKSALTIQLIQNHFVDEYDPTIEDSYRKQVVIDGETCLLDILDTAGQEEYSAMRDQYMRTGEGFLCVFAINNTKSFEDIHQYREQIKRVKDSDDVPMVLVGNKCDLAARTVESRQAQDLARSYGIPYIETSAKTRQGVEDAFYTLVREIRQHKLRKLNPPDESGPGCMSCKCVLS
smiles,measurement,setting,value
CC[C@H](C)[C@@H]1NC(=O)[C@H](CC(C)C)N(C)C(=O)C[C@@H](C(=O)N2CCOCC2)N(C)C(=O)[C@H](C2CCCC2)N(C)C(=O)C2(CCCC2)NC(=O)[C@@H]2CCCN2C(=O)[C@H](CCc2ccc(C(F)(F)F)c(Cl)c2)NC(=O)CN(C)C(=O)[C@H](Cc2ccccc2)N2CC=CC[C@@H](C2=O)N(C)C(=O)CN(C)C1=O [PP0528],NRAS/KRAS (ratio of KD value with respect to NRAS to KD value with respect to KRAS),[1],C (A compound having a KD ratio of 0.1 or more and less than 3 is denoted as C)
same,HRAS/KRAS (ratio of KD value with respect to HRAS to KD value with respect to KRAS),[2],C (A compound having a KD ratio of 0.1 or more and less than 3 is denoted as C)
same,IC50,[3],21.8 nM
CC[C@H](C)[C@@H]1NC(=O)[C@H](CC(C)C)N(C)C(=O)C[C@@H](C(=O)N2CCOCC2)N(C)C(=O)[C@H](C2CCCC2)N(C)C(=O)C2(CCCC2)NC(=O)[C@@H]2CCCN2C(=O)[C@H](CCc2ccc(C(F)(F)F)c(Cl)c2)NC(=O)CN(C)C(=O)[C@H](Cc2ccccc2)N2CCCC[C@@H](C2=O)N(C)C(=O)CN(C)C1=O [PP0529],NRAS/KRAS (ratio of KD value with respect to NRAS to KD value with respect to KRAS),[1],C (A compound having a KD ratio of 0.1 or more and less than 3 is denoted as C)
same,HRAS/KRAS (ratio of KD value with respect to HRAS to KD value with respect to KRAS),[2],B (a compound having 3 or more and less than 10 is denoted as B)
same,IC50,[3],6.5 nM
CC[C@H](C)[C@@H]1NC(=O)[C@H](CC(C)C)N(C)C(=O)C[C@@H](C(=O)N2CCOCC2)N(C)C(=O)[C@H](C2CCCC2)N(C)C(=O)C2(CCCC2)NC(=O)[C@@H]2CCCN2C(=O)[C@H](CCc2ccc(C(F)(F)F)c(Cl)c2)NC(=O)CN(C)C(=O)[C@H](Cc2ccc(F)cc2)N2CCCC[C@@H](C2=O)N(C)C(=O)CN(C)C1=O [PP0530],NRAS/KRAS (ratio of KD value with respect to NRAS to KD value with respect to KRAS),[1],C (A compound having a KD ratio of 0.1 or more and less than 3 is denoted as C)
same,HRAS/KRAS (ratio of KD value with respect to HRAS to KD value with respect to KRAS),[2],B (a compound having 3 or more and less than 10 is denoted as B)
same,IC50,[3],7 nM
CC[C@H](C)[C@@H]1NC(=O)[C@H](CC(C)C)N(C)C(=O)C[C@@H](C(=O)N2CCOCC2)N(C)C(=O)[C@H](C2CCCC2)N(C)C(=O)C2(CCCC2)NC(=O)[C@@H]2CCCN2C(=O)[C@H](CCc2ccc(C(F)(F)F)c(Cl)c2)NC(=O)CN(C)C(=O)[C@H](Cc2ccc(Cl)cc2)N2CCCC[C@@H](C2=O)N(C)C(=O)CN(C)C1=O [PP0532],NRAS/KRAS (ratio of KD value with respect to NRAS to KD value with respect to KRAS),[1],C (A compound having a KD ratio of 0.1 or more and less than 3 is denoted as C)
same,HRAS/KRAS (ratio of KD value with respect to HRAS to KD value with respect to KRAS),[2],B (a compound having 3 or more and less than 10 is denoted as B)
same,IC50,[3],6.9 nM
CC[C@H](C)[C@@H]1NC(=O)[C@H](CC(C)C)N(C)C(=O)C[C@@H](C(=O)N2CCOCC2)NC(=O)[C@H](C2CCCC2)N(C)C(=O)C2(CCCC2)NC(=O)[C@@H]2CCCN2C(=O)[C@H](CCc2cc(F)c(C(F)(F)F)c(F)c2)NC(=O)CN(C)C(=O)[C@H](Cc2ccc(C(F)(F)F)cc2)N2CCCC[C@@H](C2=O)N(C)C(=O)CN(C)C1=O [PP0541],NRAS/KRAS (ratio of KD value with respect to NRAS to KD value with respect to KRAS),[1],B (a compound having 3 or more and less than 10 is denoted as B)
same,HRAS/KRAS (ratio of KD value with respect to HRAS to KD value with respect to KRAS),[2],B (a compound having 3 or more and less than 10 is denoted as B)
same,IC50,[3],83.3 nM
CC[C@H](C)[C@@H]1NC(=O)[C@H](CC(C)C)N(C)C(=O)C[C@@H](C(=O)N2CCOCC2)N(C)C(=O)[C@H](C2CCCC2)N(C)C(=O)C2(CCCC2)NC(=O)[C@@H]2CCCN2C(=O)[C@H](CCc2ccc(C(F)(F)F)c(Cl)c2)NC(=O)CN(C)C(=O)[C@H](Cc2ccc(F)cc2)N2C/C=C\CC[C@@H](C2=O)N(C)C(=O)CN(C)C1=O [PP0607],NRAS/KRAS (ratio of KD value with respect to NRAS to KD value with respect to KRAS),[1],C (A compound having a KD ratio of 0.1 or more and less than 3 is denoted as C)
same,HRAS/KRAS (ratio of KD value with respect to HRAS to KD value with respect to KRAS),[2],B (a compound having 3 or more and less than 10 is denoted as B)
same,IC50,[3],119 nM
CC[C@H](C)[C@@H]1NC(=O)[C@H](CC(C)C)N(C)C(=O)C[C@@H](C(=O)N2CCOCC2)N(C)C(=O)[C@H](C2CCCC2)N(C)C(=O)C2(CCCC2)NC(=O)[C@@H]2CCCN2C(=O)[C@H](CCc2ccc(C(F)(F)F)c(Cl)c2)NC(=O)CN(C)C(=O)[C@H](Cc2ccc(OC)cc2)N2C/C=C\CC[C@@H](C2=O)N(C)C(=O)CN(C)C1=O [PP0609],NRAS/KRAS (ratio of KD value with respect to NRAS to KD value with respect to KRAS),[1],B (a compound having 3 or more and less than 10 is denoted as B)
same,HRAS/KRAS (ratio of KD value with respect to HRAS to KD value with respect to KRAS),[2],B (a compound having 3 or more and less than 10 is denoted as B)
same,IC50,[3],468 nM
CC[C@H](C)[C@@H]1NC(=O)[C@H](CC(C)C)N(C)C(=O)C[C@@H](C(=O)N2CCOCC2)N(C)C(=O)[C@H](C2CCCC2)N(C)C(=O)C2(CCCC2)NC(=O)[C@@H]2CCCN2C(=O)[C@H](CCc2ccc(C(F)(F)F)c(Cl)c2)NC(=O)CN(C)C(=O)[C@H](Cc2ccccc2)N2CCCCC[C@@H](C2=O)N(C)C(=O)CN(C)C1=O [PP0611],NRAS/KRAS (ratio of KD value with respect to NRAS to KD value with respect to KRAS),[1],B (a compound having 3 or more and less than 10 is denoted as B)
same,HRAS/KRAS (ratio of KD value with respect to HRAS to KD value with respect to KRAS),[2],B (a compound having 3 or more and less than 10 is denoted as B)
same,IC50,[3],88.9 nM
CC[C@H](C)[C@@H]1NC(=O)[C@H](CC(C)C)N(C)C(=O)C[C@@H](C(=O)N(C)C)N(C)C(=O)[C@H](C2CCCC2)N(C)C(=O)C2(CCCC2)NC(=O)[C@@H]2CCCN2C(=O)[C@H](CCc2ccc(C(F)(F)F)c(Cl)c2)NC(=O)CN(C)C(=O)[C@H](Cc2ccc(C)cc2)N2CC/C=C(/C)C[C@@H](C2=O)N(C)C(=O)CN(C)C1=O [PP0616],NRAS/KRAS (ratio of KD value with respect to NRAS to KD value with respect to KRAS),[1],B (a compound having 3 or more and less than 10 is denoted as B)
same,HRAS/KRAS (ratio of KD value with respect to HRAS to KD value with respect to KRAS),[2],B (a compound having 3 or more and less than 10 is denoted as B)
same,IC50,[3],73.8 nM
CC[C@H](C)[C@@H]1NC(=O)[C@H](CC(C)C)N(C)C(=O)C[C@@H](C(=O)N(C)C)N(C)C(=O)[C@@H](C2CCCC2)N(C)C(=O)C2(CCCC2)NC(=O)[C@@H]2CCCN2C(=O)[C@H](CCc2ccc(C(F)(F)F)c(Cl)c2)NC(=O)CN(C)C(=O)[C@H](Cc2ccc(C(F)(F)F)cc2)N2CC/C=C(/C)C[C@@H](C2=O)N(C)C(=O)CN(C)C1=O [PP0617],NRAS/KRAS (ratio of KD value with respect to NRAS to KD value with respect to KRAS),[1],B (a compound having 3 or more and less than 10 is denoted as B)
same,HRAS/KRAS (ratio of KD value with respect to HRAS to KD value with respect to KRAS),[2],B (a compound having 3 or more and less than 10 is denoted as B)
same,IC50,[3],159 nM
CC[C@H](C)[C@@H]1NC(=O)[C@@H](CC(C)C)N(C)C(=O)C[C@@H](C(=O)N(C)C)N(C)C(=O)[C@@H](C2CCCC2)N(C)C(=O)C2(CCCC2)NC(=O)[C@@H]2CCCN2C(=O)[C@H](CCc2ccc(C(F)(F)F)c(Cl)c2)NC(=O)CN(C)C(=O)[C@@H](Cc2ccc(C(F)(F)F)cc2)N2CC/C=C\CCN(CC2=O)C(=O)CN(C)C1=O [PP0619],NRAS/KRAS (ratio of KD value with respect to NRAS to KD value with respect to KRAS),[1],C (A compound having a KD ratio of 0.1 or more and less than 3 is denoted as C)
same,HRAS/KRAS (ratio of KD value with respect to HRAS to KD value with respect to KRAS),[2],C (A compound having a KD ratio of 0.1 or more and less than 3 is denoted as C)
same,IC50,[3],70.7 nM
CC[C@H](C)[C@@H]1NC(=O)[C@H](CC(C)C)N(C)C(=O)C[C@@H](C(=O)N(C)C)N(C)C(=O)[C@H](C2CCCC2)N(C)C(=O)C2(CCCC2)NC(=O)[C@@H]2CCCN2C(=O)[C@H](CCc2ccc(C(F)(F)F)c(Cl)c2)NC(=O)CN(C)C(=O)[C@H](Cc2ccc(C)cc2)N2CC=C(C)C[C@@H](C2=O)N(C)C(=O)CN(C)C1=O [PP0620],NRAS/KRAS (ratio of KD value with respect to NRAS to KD value with respect to KRAS),[1],C (A compound having a KD ratio of 0.1 or more and less than 3 is denoted as C)
same,HRAS/KRAS (ratio of KD value with respect to HRAS to KD value with respect to KRAS),[2],C (A compound having a KD ratio of 0.1 or more and less than 3 is denoted as C)
same,IC50,[3],38.4 nM
CC[C@H](C)[C@@H]1NC(=O)[C@@H](CC(C)C)N(C)C(=O)C[C@@H](C(=O)N(C)C)N(C)C(=O)[C@H](C2CCCC2)N(C)C(=O)C2(CCCC2)NC(=O)[C@@H]2CCCN2C(=O)[C@@H](CCc2ccc(C(F)(F)F)c(Cl)c2)NC(=O)CN(C)C(=O)[C@@H](Cc2ccc(C(F)(F)F)cc2)N2C/C=C\COC[C@@H](C2=O)N(C)C(=O)CN(C)C1=O [PP0626],NRAS/KRAS (ratio of KD value with respect to NRAS to KD value with respect to KRAS),[1],C (A compound having a KD ratio of 0.1 or more and less than 3 is denoted as C)
same,HRAS/KRAS (ratio of KD value with respect to HRAS to KD value with respect to KRAS),[2],C (A compound having a KD ratio of 0.1 or more and less than 3 is denoted as C)
same,IC50,[3],158 nM
CCO[C@@H]1C[C@H]2C(=O)NC3(CCC3)C(=O)N(C)[C@@H](C3CCCC3)C(=O)N(CCC3CCCC3)[C@H](C(=O)N3CCOCC3)CC(=O)N(C)[C@@H](CC(C)C)C(=O)N[C@@H]([C@@H](C)CC)C(=O)N(C)CC(=O)N(C)[C@H]3CCCCCN(C3=O)[C@@H](Cc3ccc(C(F)(F)F)cc3)C(=O)N(C)CC(=O)N[C@@H](CCc3cc(F)c(C(F)(F)F)c(F)c3)C(=O)N2C1 [PP0641],NRAS/KRAS (ratio of KD value with respect to NRAS to KD value with respect to KRAS),[1],A (a compound having 10 or more and less than 20 is denoted as A)
same,HRAS/KRAS (ratio of KD value with respect to HRAS to KD value with respect to KRAS),[2],A (a compound having 10 or more and less than 20 is denoted as A)
same,IC50,[3],> 1300 nM
CCO[C@@H]1C[C@H]2C(=O)NC3(CCC3)C(=O)N(C)[C@@H](C3CCCC3)C(=O)N(C)[C@H](C(=O)N(C)C)CC(=O)N(C)[C@@H](CC(C)(C)C)C(=O)N[C@@H]([C@@H](C)CC)C(=O)N(C)CC(=O)N(C)[C@H]3CCCCCN(C3=O)[C@@H](Cc3ccc(C(F)(F)F)cc3)C(=O)N(C)CC(=O)N[C@@H](CCc3cc(F)c(C(F)(F)F)c(F)c3)C(=O)N2C1 [PP0669],NRAS/KRAS (ratio of KD value with respect to NRAS to KD value with respect to KRAS),[1],B (a compound having 3 or more and less than 10 is denoted as B)
same,HRAS/KRAS (ratio of KD value with respect to HRAS to KD value with respect to KRAS),[2],B (a compound having 3 or more and less than 10 is denoted as B)
same,IC50,[3],20.3 nM
